Where a SMILES comes first, the peptide text is derived from it. Bridges are numbered along the chain shown (N, C = ends). Side-chain parts run from the residue outwards. [ ]: non-standard residue; d: D form. The star is where a group is joined. X4 = O=C(O)CN1CCN(CC(=O)O)CCN(CC(=O)N[C@@H](CS(=O)(=O)O)C(=O)NCCCC[C@H](NC(=O)CNC(=O)CCCc2ccc(Cl)cc2)C(=O)*)CCN(CC(=O)O)CC1; X6 = COc1ccc(CCCC(=O)NCCCC[C@H](NC(=O)[C@H](CS(=O)(=O)O)NC(=O)CN2CCN(CC(=O)O)CCN(CC(=O)O)CCN(CC(=O)O)CC2)C(=O)*)cc1; X7 = COc1ccc(CCCC(=O)NCCCC[C@H](NC(=O)CN2CCN(CC(=O)O)CCN(CC(=O)O)CCN(CC(=O)O)CC2)C(=O)*)cc1; 2Nal = N[C@@H](Cc1ccc2ccccc2c1)C(=O)O; Lys(iPr) = CC(C)NCCCC[C@H](N)C(=O)O; Cya = N[C@@H](CS(=O)(=O)O)C(=O)O
Experiment: in vivo
Parameters: species or system mice
Conditions: male, NOD.Cg-Rag1tm1Mom Il2rgtm1Wjl/SzJ (NRG), mouse, iv, total radioactivity
Protocol: The Z138 Mantle cell lymphoma cell line was purchased from the American Type Culture Collection (ATCC©CRL-3001). The cell line was cultured in a 5% CO2 atmosphere at 37° C. in a humidified incubator with IMDM medium supplemented with 10% fetal bovine serum, 100 I.U./mL penicillin, and 100 μg/mL streptomycin.
[^68Ga]GaCl3 was eluted from an iThemba Labs generator with a total of 4 mL of 0.1 M HCl. The eluted [^68Ga]GaCl3 solution was added to 2 mL of concentrated HCl. This radioactive mixture was then added to a DGA resin column and washed with 3 mL of 5 M HCl. The column was then dried with air and the [^68Ga]GaCl3 (0.10-0.50 GBq) was eluted with 0.5 mL of water into a vial containing a solution of the unlabeled precursor (25 μg) in 0.7 mL HEPES buffer (2 M, pH 5.3). The reaction mixture was heated in a microwave oven (Danby; DMW7700WDB) for 1 min at power setting 2. The mixture was purified by semi-prep HPLC and quality control was performed via analytical HPLC with the co-injection of the unlabeled standard with a one-twelfth of the radiotracer. Radiochemical yields (decay-corrected) were >50% and radiochemical purities were >95%.
Animal experiments were performed in accordance with guidelines established by the Canadian Council on Animal Care, under a research protocol approved by the Animal Ethics Committee of the University of British Columbia. For all studies, male NOD.Cg-Rag1tm1Momll2rgtm1Wjl/SzJ (NRG) mice were used and cells injected in a 100 μL solution of 1:1 ratio of PBS/Matrigel. For preclinical imaging and biodistribution studies, 5×10^6 cells of Z138, cells were subcutaneously inoculated on the left or right flank and tumors were grown to a size of 200-300 mm^3. […]
Under isoflurane anesthesia (2-2.5% isoflurane in 2 L/min 02), mice were injected intravenously with [^68Ga]Ga-BL34L6 or [^68Ga]Ga-BL34L7. Mice were euthanized by CO2 inhalation after anesthesia with isoflurane. Tissues were harvested, washed in PBS, patted dry, weighed, and then assayed radioactivity on a gamma counter. Counted radioactivities were converted to percentage injected dose per gram of tissue (% ID/g) using a calibration curve.

[1] = Biodistribution: Small Intestine

Structure (SMILES)	tissue uptake at 1 h (Biodistribution: Adrenals) [%ID/g]	tissue uptake at 1 h (Biodistribution: Blood) [%ID/g]	tissue uptake at 1 h (Biodistribution: Bone) [%ID/g]	tissue uptake at 1 h (Biodistribution: Brain) [%ID/g]	tissue uptake at 1 h (Biodistribution: Heart) [%ID/g]	tissue uptake at 1 h (Biodistribution: Kidneys) [%ID/g]	tissue uptake at 1 h (Biodistribution: Liver) [%ID/g]	tissue uptake at 1 h (Biodistribution: Lungs) [%ID/g]	tissue uptake at 1 h (Biodistribution: Muscle) [%ID/g]	tissue uptake at 1 h (Biodistribution: Pancreas) [%ID/g]	tissue uptake at 1 h [1] [%ID/g]	tissue uptake at 1 h (Biodistribution: Spleen) [%ID/g]	tissue uptake at 1 h (Biodistribution: Stomach) [%ID/g]	tissue uptake at 1 h (Biodistribution: Testes) [%ID/g]	tissue uptake at 1 h (Biodistribution: Z138 Tumor) [%ID/g]	tissue to tissue ratio at 1 h (Ratio Tumor-to-Blood)	tissue to tissue ratio at 1 h (Ratio Tumor-to-Bone)	tissue to tissue ratio at 1 h (Ratio Tumor-to-Kidney)	tissue to tissue ratio at 1 h (Ratio Tumor-to-Muscle)	tissue to tissue ratio at 1 h (Ratio Tumor-to-Pancreas)	further results
COc1ccc(CCCC(=O)NCCCC[C@H](NC(=O)CN2CCN(CC(=O)O)CCN(CC(=O)O)CCN(CC(=O)O)CC2)C(=O)N[C@@H](CS(=O)(=O)O)C(=O)NCCCC[C@@H]2NC(=O)CC[C@H](C(=O)N[C@@H](CCCCNC(C)C)C(N)=O)NC(=O)[C@@H](C)NC(=O)[C@H](Cc3ccc4ccccc4c3)NC(=O)[C@@H](CCCNC(=N)N)NC(=O)[C@H](CCCCNC(C)C)NC(=O)[C@H](Cc3ccc(O)cc3)NC2=O)cc1 [[68Ga]Ga-BL34L6, metal not drawn] (K([Cya-X7])Y[Lys(iPr)][dR][2Nal][dA][dE][Lys(iPr)]-NH2; lactam N-7)	0.29	0.83	0.14	0.01	0.22	2.07	1.6	0.99	0.12	0.12	0.24	0.45	0.05	0.26	8.92	11.6	66.5	4.36	84.6	75.3	
CC(C)NCCCC[C@H](NC(=O)[C@H]1CCC(=O)N[C@@H](CCCCNC(=O)[C@H](CCCCNC(=O)[C@H](CS(=O)(=O)O)NC(=O)CN2CCN(CC(=O)O)CCN(CC(=O)O)CCN(CC(=O)O)CC2)NC(=O)CNC(=O)CCCc2ccc(Cl)cc2)C(=O)N[C@@H](Cc2ccc(O)cc2)C(=O)N[C@@H](CCCCNC(C)C)C(=O)N[C@H](CCCNC(=N)N)C(=O)N[C@@H](Cc2ccc3ccccc3c2)C(=O)N[C@H](C)C(=O)N1)C(N)=O [[68Ga]Ga-BL34T1, metal not drawn] (K(X4)Y[Lys(iPr)][dR][2Nal][dA][dE][Lys(iPr)]-NH2; lactam N-7)	2.62	13.3	1.04	0.19	3.11	5.01	2.9	9.23	0.99	1.24	1.31	2.3	0.49	1.95	12.2	0.93	12.7	2.52	12.8	10.1	tissue uptake at 3 h (Biodistribution: Adrenals): 1.93 %ID/g; tissue uptake at 3 h (Biodistribution: Blood): 7.55 %ID/g; tissue uptake at 3 h (Biodistribution: Bone): 1.28 %ID/g; tissue uptake at 3 h (Biodistribution: Brain): 0.16 %ID/g; tissue uptake at 3 h (Biodistribution: Heart): 1.91 %ID/g; tissue uptake at 3 h (Biodistribution: Kidneys): 4.15 %ID/g; tissue uptake at 3 h (Biodistribution: Liver): 3.02 %ID/g; tissue uptake at 3 h (Biodistribution: Lungs): 5.9 %ID/g; tissue uptake at 3 h (Biodistribution: Muscle): 0.73 %ID/g; tissue uptake at 3 h (Biodistribution: Pancreas): 0.92 %ID/g; tissue uptake at 3 h [1]: 0.89 %ID/g; tissue uptake at 3 h (Biodistribution: Spleen): 2.08 %ID/g; tissue uptake at 3 h (Biodistribution: Stomach): 0.44 %ID/g; tissue uptake at 3 h (Biodistribution: Testes): 1.71 %ID/g; tissue uptake at 3 h (Biodistribution: Z138 Tumor): 23.7 %ID/g; tissue to tissue ratio at 3 h (Ratio Tumor-to-Blood): 3.17; tissue to tissue ratio at 3 h (Ratio Tumor-to-Bone): 21.9; tissue to tissue ratio at 3 h (Ratio Tumor-to-Kidney): 5.78; tissue to tissue ratio at 3 h (Ratio Tumor-to-Muscle): 32.6; tissue to tissue ratio at 3 h (Ratio Tumor-to-Pancreas): 26
CC(C)NCCCC[C@H](NC(=O)[C@@H]1CCSc2c3cccc([N+](=O)[O-])c3cn2[C@@H](CCCCNC(=O)[C@H](CS(=O)(=O)O)NC(=O)CN2CCN(CC(=O)O)CCN(CC(=O)O)CCN(CC(=O)O)CC2)C(=O)CC(Cc2ccc(O)cc2)C(=O)N[C@@H](CCCCNC(C)C)C(=O)N[C@H](CCCNC(=N)N)C(=O)N[C@@H](Cc2ccc3ccccc3c2)C(=O)N[C@H](C)C(=O)N1)C(N)=O (stereo partly shown) [[^68Ga]Ga-3NOPA-BL34L2, metal not drawn]	0.7	0.77	0.56	0.03	0.45	5.66	12.5	4.14	0.19	0.21	0.58	2.44	0.12	0.33	7.97	10.4	15.5	1.41	41.8	38.1	
COc1ccc(CCCC(=O)NCCCC[C@H](NC(=O)[C@H](CS(=O)(=O)O)NC(=O)CN2CCN(CC(=O)O)CCN(CC(=O)O)CCN(CC(=O)O)CC2)C(=O)NCCCC[C@@H]2NC(=O)CC[C@H](C(=O)N[C@@H](CCCCNC(C)C)C(N)=O)NC(=O)[C@@H](C)NC(=O)[C@H](Cc3ccc4ccccc4c3)NC(=O)[C@@H](CCCNC(=N)N)NC(=O)[C@H](CCCCNC(C)C)NC(=O)[C@H](Cc3ccc(O)cc3)NC2=O)cc1 [[^68Ga]Ga-BL34L7, metal not drawn] (K(X6)Y[Lys(iPr)][dR][2Nal][dA][dE][Lys(iPr)]-NH2; lactam N-7)	0.52	1.73	0.4	0.04	0.41	2.45	1.24	1.75	0.14	0.23	0.34	0.59	0.09	0.44	11.1	6.5	37.2	4.51	87.1	9.07	
